Laboratory results reported in patent US9550752B2, “Triazolinthione derivatives” (priority 2013, dated 2017).
Read-outs that look alike come from different tables or passages of the source. Marks after values point to notes of the source that are not given here.

Legend:
Pyricularia oryzae = assay type: in vivo; settings: 500 ppm of active ingredient; rice, preventive; evaluated 8 days after inoculation
Botrytis cinerea = test: In vivo preventive test on Botrytis cinerea (grey mould); settings: 100 ppm of active ingredient; gherkin plants, preventive spray; evaluated 4 to 5 days after inoculation
Protocol: (§1) The young plants of gherkin are treated by spraying the active ingredient prepared as described above. Control plants are treated only with an aqueous solution of acetone/Dimethyl sulfoxide/tween®. After 24 hours, the plants are contaminated by spraying the leaves with an aqueous suspension of Botrytis cinerea spores.

Pyrenophora teres = test: In vivo preventive test on Pyrenophora teres (net blotch on barley); settings: 500 ppm of active ingredient; barley plants, preventive spray; evaluated 14 days after inoculation
Protocol: as §1, with “barley” for “gherkin”, “Pyrenophora teres” for “Botrytis cinerea”

[1] = reversed phase HPLC column, pH 2.7
[2] = method [a]: pH 2.7, Table 3, formula (V)
[3] = method [a]: pH 2.7, Table 4, formula (XII)

Row | Structure (SMILES) | LogP (pH 2.7) | other results
1 | OC(Cc1cccnc1Cl)(Cn1ncnc1S)C1(F)CC1 (stereo not drawn) [Example I-11] | 1.76^[a] | biological efficacy (Pyricularia oryzae): ≥ 90%
2 | OC(Cc1ccncc1Cl)(Cn1ncnc1S)C1(F)CC1 (stereo not drawn) [Example I-13] | 1.63^[a] | biological efficacy (Botrytis cinerea): ≥ 90%
3 | CCC(C)(C)C(O)(Cc1ccncc1F)Cn1ncnc1S (stereo not drawn) [Example I-17] | 2.14^[a] | biological efficacy (Pyrenophora teres): ≥ 90%
4 | O=C(Cc1cccnc1Cl)C1(Cl)CC1 [Example V-3, 1-(1-chlorocyclopropyl)-2-(2-chloropyridin-3-yl)ethanone] | – | chromatographic logP (physchem; pH 2.7): 2.2; chromatographic logP (physchem; pH 7.8): 2.21
5 | OC(Cc1ccncc1Cl)(Cn1cncn1)C1(Cl)CC1 (stereo not drawn) [XXI-5, 2-(1-chlorocyclopropyl)-1-(3-chloropyridin-4-yl)-3-(1H-1,2,4-triazol-1-yl)propan-2-ol] | – | chromatographic logP (physchem; [1]): 1.67; chromatographic logP (physchem; reversed phase HPLC column, pH 7.8): 1.75
6 | OC(Cc1cc(Cl)nnc1Cl)(Cn1cncn1)C1(Cl)CC1 (racemic) [XXI-51] | 1.92^[a] | –
7 | CC(C)(C)C(O)(Cc1ccncc1Cl)Cn1cncn1 (stereo not drawn) [XXI-11] | 1.74^[a] | –
8 | CC(C)(C)C(=O)Cc1ccncc1 [Example V-20] | – | LogP [2]: 0.35; LogP (method [b]: pH 7.8, Table 3, formula (V)): 1.75
9 | OC(Cc1cc(Cl)ncc1Cl)(Cn1cncn1)C1(Cl)CC1 (racemic) [XXI-63] | 2.53^[a] | –
10 | OC(Cc1ncnc(Cl)c1Cl)(Cn1cncn1)C1(Cl)CC1 (racemic) [XXI-62] | 2.28^[a] | –
11 | CC(C)C(C)(C)C1(Cc2ccncc2F)CO1 (stereo not drawn) [XII-17] | – | LogP [3]: 3.19^[a]
12 | CCCCc1nc2ccccc2cc1CC(O)(Cn1ncnc1S)C(C)(C)C (stereo not drawn) [Example I-6] | 1.88^[a] | –
13 | OC(Cc1ccccc1F)(Cc1ccnc(Cl)c1F)Cn1cncn1 (stereo not drawn) [XXI-90] | 1.73^[a] | –
14 | CCC(C)(C)C1(Cc2ccncc2Cl)CO1 (stereo not drawn) [XII-34] | – | LogP [3]: 3.33^[a]
15 | OC(CCl)(Cc1cc(Cl)nc(Cl)c1)C1(Cl)CC1 (stereo not drawn) [XV-1] | 3.85^[a] | –
16 | OC(Cc1ccccc1F)(Cc1cc(Cl)ncc1F)Cn1cncn1 (stereo not drawn) [XXI-78] | 2.34^[a] | –
17 | CC(C)C(C)(C)C1(Cc2cc(Cl)ncc2F)CO1 (stereo not drawn) [XII-24] | – | LogP [3]: 4.34^[a]
18 | CC(C)(C)C(O)(Cc1cc(Cl)ccn1)Cn1cncn1 (racemic) [XXI-119] | 1.87^[a] | –
19 | CCC(C)(C)C1(Cc2c(Cl)cncc2Cl)CO1 (stereo not drawn) [XII-54] | – | LogP [3]: 4.41^[a]
20 | CCCC(C)(C)C1(Cc2ccncc2Cl)CO1 (stereo not drawn) [XII-57] | – | LogP [3]: 2.03^[a]
21 | OC(Cc1cc(F)ncc1Cl)(Cn1cncn1)C1(Cl)CC1 (stereo not drawn) [XXI-94] | 2.30^[a] | –
22 | OC(Cc1ccnc(Cl)c1)(Cn1cncn1)c1ccc(Cl)nc1 (racemic) [XXI-43] | 1.38^[a] | –
23 | CCC(C)(C)C1(Cc2ccnc(Cl)c2)CO1 (stereo not drawn) [XII-18] | – | LogP [3]: 3.51^[a]
24 | Cc1ncc(CC(O)(Cn2cncn2)C(C)(C)C)nc1Cl (racemic) [XXI-116] | 2.10^[a] | –

Row | Structure (SMILES) | LogP (pH 2.7) | other results
25 | CCC(C)(C)C(O)(Cc1ccnc(Cl)c1)Cn1cncn1 (racemic) [XXI-111] | 2.27^[a] | –
26 | OC(Cc1ccc(F)cc1)(Cc1ccncc1Cl)Cn1cncn1 (stereo not drawn) [XXI-80] | 1.93^[a] | –
27 | OC(Cc1ccncc1Cl)(Cn1cncn1)C1(c2ccccc2)CC1 (stereo not drawn) [XXI-83] | 2.23^[a] | –
28 | OC(Cc1cc(Cl)ncc1F)(Cn1cncn1)c1cccnc1Cl (racemic) [XXI-48] | 1.57^[a] | –
29 | OC(Cc1ccncc1C(F)(F)F)(Cn1cncn1)C1(Cl)CC1 (stereo not drawn) [XXI-86] | 2.08^[a] | –
30 | CC1(C(O)(Cc2ccncc2Cl)Cn2ncnc2S)CC1 (stereo not drawn) [Example I-16] | 1.96^[a] | –
31 | Cc1cc(C(O)(Cc2ccncc2Cl)Cn2cncn2)nn1C (stereo not drawn) [XXI-71] | 0.84^[a] | –
32 | CC(CF)(CF)C(O)(Cc1cc(Cl)ncc1F)Cn1cncn1 (racemic) [XXI-49] | 1.89^[a] | –
33 | CC(C)(C)C(O)(Cc1c(Cl)cncc1Cl)Cn1cncn1 (racemic) [XXI-125] | 2.34^[a] | –
34 | OC(Cc1ccnc(Cl)c1F)(Cn1cncn1)c1cccnc1Cl (racemic) [XXI-64] | 1.54^[a] | –
35 | OC(Cc1cccc(Cl)c1)(Cc1cc(Cl)ncc1F)Cn1cncn1 (stereo not drawn) [XXI-79] | 2.69^[a] | –
36 | OC(Cc1ccncc1F)(Cn1ncnc1S)C1(Cl)CC1 (stereo not drawn) [Example I-19] | 1.65^[a] | –
37 | OC(Cc1ccc(Cl)nc1Cl)(Cn1cncn1)C1(Cl)CC1 (racemic) [XXI-58] | 2.55^[a] | –
38 | CC(C)(C)C(O)(Cc1cccnc1Cl)Cn1cncn1 (stereo not drawn) [XXI-10] | 1.94^[a] | LogP (pH 7.8): 1.90^[b];
39 | CC(C)(C)C(O)(Cc1cc(Cl)cc(Cl)n1)Cn1ncnc1S (stereo not drawn) [Example I-10] | 3.07^[a] | –
40 | OC(Cc1ccnc(Cl)c1)(Cn1cncn1)C1(Cl)CC1 (racemic) [XXI-44] | 1.76^[a] | –
41 | OC(Cc1ccncc1Cl)(Cn1nc[nH]c1=S)C1(Cl)CC1 (stereo not drawn) [Example I-3, 2-[2-(1-chlorocyclopropyl)-3-(3-chloropyridin-4-yl)-2-hydroxypropyl]-2,4-dihydro-3H-1,2,4-triazole-3-thione] | – | chromatographic logP (physchem; [1]): 2.01
42 | CC(C)(C)C(=O)Cc1cccnc1Cl [Example V-16] | – | LogP [2]: 2.34^[a]
43 | CC(C)(C)C(O)(Cc1ccncc1Cl)Cn1ncnc1S (stereo not drawn) [Example I-2] | 2.14^[a] | –
44 | CC(C)(C)C(O)(Cc1ccnc(Cl)c1)Cn1cncn1 (racemic) [XXI-112] | 1.93^[a] | –
45 | OC(Cc1ccnc(Cl)c1F)(Cn1cncn1)c1ccc(Cl)nc1 (stereo not drawn) [XXI-91] | 1.23^[a] | –
46 | CC1(C(O)(Cc2ccncc2Cl)Cn2cncn2)CC1 (racemic) [XXI-54] | 1.57^[a] | –
47 | CC(C)(C)C(O)(Cc1cc(Cl)cc(Cl)n1)Cn1cncn1 (racemic) [XXI-108] | 2.86^[a] | –
